Here are results for 20 compounds from EP4759807A1, “PROTEOLYSIS TARGETING CHIMERA COMPOUND FOR DEGRADING IRAK4 AND USE THEREOF” (Shenzhen Zhongge Biological Technology Co., Ltd., priority 2023, dated 2025).

The target of this assay is T1, IRAK4 (Homo sapiens, UniProt Q9NWZ3).
T1 sequence (Q9NWZ3 1-460): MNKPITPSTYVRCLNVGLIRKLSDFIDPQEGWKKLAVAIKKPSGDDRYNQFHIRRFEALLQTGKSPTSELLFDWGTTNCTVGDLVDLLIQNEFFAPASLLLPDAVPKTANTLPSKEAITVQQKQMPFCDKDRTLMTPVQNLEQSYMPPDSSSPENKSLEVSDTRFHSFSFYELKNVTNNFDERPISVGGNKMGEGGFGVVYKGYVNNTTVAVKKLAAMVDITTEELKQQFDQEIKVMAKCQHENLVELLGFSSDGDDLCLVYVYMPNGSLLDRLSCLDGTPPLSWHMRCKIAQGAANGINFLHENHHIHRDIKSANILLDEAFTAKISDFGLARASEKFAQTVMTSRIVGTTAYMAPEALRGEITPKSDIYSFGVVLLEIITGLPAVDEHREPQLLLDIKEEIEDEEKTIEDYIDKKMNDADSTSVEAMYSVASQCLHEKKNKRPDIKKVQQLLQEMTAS
Briefly: Hibit fluorescence detection of proteolysis (IRAK4-HiBiT in HEK293T cells). The assay is classed as cell-based. Further details: host or cells: HEK293T (ATCC). Here is the method: Utilizing HiBiT tag technology, the HiBiT tag-containing sequence (Seq. ID. No. 1, Beijing Tsingke Biotech Co., Ltd.) was connected to the IRAK4 plasmid (Seq. ID. No. 2, Beijing Tsingke Biotech Co., Ltd.), and the plasmid was transfected into HEK293T cells (ATCC). […] The 6-well plate that was incubated overnight was taken out. After the plate was left at room temperature for 15 min, the obtained mixture was added dropwise to the 6-well plate. […] Culture was performed at 37°C and 5% CO2 for 24 h. The 384-well plate was taken out and equilibrated to room temperature. 40 µL of Nano-Glo® HiBiT Lytic Detection System (Promega N3030) was added to each well and incubated at room temperature for 15 min. […] Prism 9.3 software was used to perform fitting analysis for data, and non-linear fitting (non-liner inhibitor (Bell-shaped)) and four parameters (4 parameter) were used, and the parameters was as follows: Span1 = Plateau1−Dip [formula] Span2 = Plateau2−Dip [formula] Section1 = Span1/(1+10^(∧)((LogEC50_1−X)*nH1)) [formula] Section2 = Span2/(1+10^(∧)((X−LogEC50_2)*nH2)) [formula]
The equation was as follows: Y=Dip+Section1+Section2. • Seq. ID. No. 1 ([…]), other DNA, synthetic construct, sequence length 33; • Seq. ID. No. 2 [formula]
(With HiBiT, luminescence reflects the tagged protein that the partner subunit can reach.)

[1] abbreviates: IRAK4-HiBiT, HEK293T cells, 24 h.
Where [2] appears, read: IRAK4-HiBiT, HEK293T cells, 24 h, read-out: DC50.

Where a name gives a salt, the structure may show the parent alone. Read-outs that look alike come from different tables or passages of the source.

`Cn1c(=O)n(C2CCC(=O)NC2=O)c2cccc(C#CCOC3CCN(C[C@H]4CC[C@H](n5cc(-n6cc(-c7ccc8cc(C(N)=O)cnn78)nn6)c(C(F)F)n5)CC4)CC3)c21` (stereo partly drawn) [Example 65]: the Dmax (HEK-293T) is 60 to 70%. The compound further returned a DC50 under setting [1] of less than 500 pM.

Take `Cn1c(=O)n(C2CCC(=O)NC2=O)c2cccc(N3CC4(CCN(C[C@H]5CC[C@H](n6cc(-n7cc(-c8cnn9ccc(N%10CCOCC%10)nc89)nn7)c(C(F)F)n6)CC5)CC4)C3)c21` (stereo partly drawn) [Example 43, 3-(4-(7-(((1r,4r)-4-(3-(difluoromethyl)-4-(4-(5-morpholinopyrazolo[1,5-a]pyrimidin-3-yl)-1H-1,2,3-triazol-1-yl)-1H-pyrazol-1-yl)cyclohexyl)methyl)-2,7-diazaspiro[3.5]nonan-2-yl)-3-methyl-2-oxo-2,3-dihydro-1H-benzo[d]imidazol-1-yl)piperidine-2,6-dione]: for the setting “HEK-293T”, the Dmax was more than 80%. Under setting [1], the DC50 is less than 500 pM.

`Cn1c(=O)n(C2CCC(=O)NC2=O)c2cccc(CN3CC4(CCN(C[C@H]5CC[C@H](n6cc(-n7cc(-c8cnn9ccc(N%10CCOCC%10)nc89)nn7)c(C(F)F)n6)CC5)CC4)C3)c21` (stereo partly drawn) [Example 13, 3-(4-((7-(((1r,4r)-4-(3-(difluoromethyl)-4-(4-(5-morpholinopyrazolo[1,5-a]pyrimidin-3-yl)-1H -1,2,3-triazol-1-yl)-1H-pyrazol-1-yl)cyclohexyl)methyl)-2,7-diazaspiro[3.5]nonan-2-yl)methyl)-3-methyl-2-oxo-2,3-dihydro-1H-benzo[d]imidazol-1-yl)piperidine-2,6-dione] registered a Dmax (HEK-293T) of more than 80%. In addition, the DC50 under setting [1] was less than 500 pM. Regarding `Cn1c(=O)n(C2CCC(=O)NC2=O)c2cccc(N3CCC4(CCN(CC5CCC(n6cc(-n7cc(-c8cnn9ccc(N%10CCC(O)CC%10)nc89)nn7)c(C(F)F)n6)CC5)CC4)C3)c21` (stereo not drawn) [Example 137, 3-(4-(8-(((1r,4r)-4-(3-(difluoromethyl)-4-(4-(5-(4-hydroxypiperidin-1-yl))pyrazolo[1,5-a]pyrimidin-3-yl)-1H-1,2,3-triazol-1-yl)-1H-pyrazol-1-yl)cyclohexyl)methyl)-2,8-diazaspiro[4.5]dec-2-yl)-3-methyl-2-oxo-2,3-dihydro-1H-benzo[d]imidazol-1-yl)piperidine-2,6-dione], the Dmax result under setting [1] is on record as “A (Dmax ≥ 80%)”. For the same compound, the DC50 under setting [2] was less than 500 pM. `Cn1c(=O)n(C2CCC(=O)NC2=O)c2cccc(N3CCN(C4CN(C[C@H]5CC[C@H](n6cc(-n7cc(-c8cnn9ccc(N%10CCOCC%10)nc89)nn7)c(C(F)F)n6)CC5)C4)CC3)c21` (stereo partly drawn) [Example 44]: the Dmax (HEK-293T) was more than 80%. The compound further had a DC50 under setting [1] of less than 500 pM. Turning to `Cl.Cn1c(=O)n(C2CCC(=O)NC2=O)c2cccc(N3CCN(C4CCN(C[C@H]5CC[C@H](n6cc(-n7cc(-c8cnn9ccc(N%10CCNCC%10)nc89)nn7)c(C(F)F)n6)CC5)CC4)CC3)c21` (stereo partly drawn) [Example 131], under setting [1], the Dmax result is listed as “A (Dmax ≥ 80%)”.

Under “HEK-293T”, `C[C@H](C#Cc1cccc2c1n(C)c(=O)n2C1CCC(=O)NC1=O)OC1CCN(C[C@H]2CC[C@H](n3cc(-n4cc(-c5cnn6ccc(N7CCOCC7)nc56)nn4)c(C(F)F)n3)CC2)CC1` (stereo partly drawn) [Example 1, 3-(4-((R)-3-((1-(((1r,4R)-4-(3-(difluoromethyl)-4-(4-(5-morpholinopyrazolo[1,5-a]pyrimidin-3-yl)-1H-1,2,3-triazol-1-yl)-1H-pyrazol-1-yl)cyclohexyl)methyl)piperidin-4-yl)oxy)but-1-yn-1-yl)-3-methyl-2-oxo-2,3-dihydro-1H-benzo[d]imidazol-1-yl)piperidine-2,6-dione] displayed a Dmax of less than 60%. For the same compound, under setting [1], the DC50 is less than 500 pM. For `Cn1c(=O)n(C2CCC(=O)NC2=O)c2cccc(N3CCC(CN4CCC(n5cc(-n6cc(-c7ccc8cc(C(N)=O)cnn78)nn6)c(C(F)F)n5)CC4)CC3)c21` (stereo not drawn) [Example 74, 7-(1-(3-(difluoromethyl)-1-(1-((1-(1-(2,6-dioxopiperidin-3-yl)-3-methyl-2-oxo-2,3-dihydro-1H-benzo[d]imidazol-4-yl)piperidin-4-yl)methyl)piperidin-4-yl)-1H-pyrazol-4-yl)-1H-1,2,3-triazol-4-yl)pyrrolo[1,2-b]pyridazine-3-carboxamide], under “HEK-293T, IRAK4-HiBiT, HEK293T cells, 24 h, read-out: Dmax”, the Dmax was in the range of 70 to 80%. Also, the DC50 under setting [2] was less than 500 pM. Where the note is “HEK-293T”, `Cn1c(=O)n(C2CCC(=O)NC2=O)c2cccc(N3CCC4(CCN(C[C@H]5CC[C@H](n6cc(-n7cc(-c8cnn9cc(C#N)cnc89)nn7)c(C(F)F)n6)CC5)CC4)C3)c21` (stereo partly drawn) [Compound 202] registered a Dmax of less than 60%. Under setting [2], the DC50 lay in the range of 500 to 1000 pM. On to `Cn1c(=O)n(C2CCC(=O)NC2=O)c2cccc(N3CCN(C4CCN(C[C@H]5CC[C@H](n6cc(-n7cc(-c8cnn9ccc(N[C@H]%10CCCC[C@H]%10O)nc89)nn7)c(C(F)F)n6)CC5)CC4)CC3)c21` (stereo partly drawn) [Example 149], for which the Dmax (HEK-293T) is more than 80%. Further, under setting [1], the DC50 is less than 500 pM. The corresponding values for `Cn1c(=O)n(C2CCC(=O)NC2=O)c2cccc(C#CC3CCN(C[C@H]4CC[C@H](n5cc(-n6cc(-c7ccc8cc(C(N)=O)cnn78)nn6)c(C(F)F)n5)CC4)CC3)c21` (stereo partly drawn) [Example 79] are 70 to 80% and 500 to 1000 pM. The like results for `Cn1c(=O)n(C2CCC(=O)NC2=O)c2cccc(N3CCN(C4CCN(C[C@H]5CC[C@H](n6cc(-n7cc(-c8cnn9ccc(N%10CCC(O)CC%10)nc89)nn7)c(C(F)F)n6)CC5)CC4)CC3)c21` (stereo partly drawn) [Example 138] were, in that order, more than 80% and less than 500 pM. The like results for `Cn1c(=O)n(C2CCC(=O)NC2=O)c2cccc(N3CCC4(CCN(C[C@H]5CC[C@H](n6cc(-n7cc(-c8cnn9ccc(N[C@@H]%10CCCC[C@@H]%10O)nc89)nn7)c(C(F)F)n6)CC5)CC4)C3)c21` (stereo partly drawn) [Example 152] were, in that order, more than 80% and less than 500 pM. `CN1CCN(c2ccn3ncc(-c4cn(-c5cn([C@H]6CC[C@H](CN(C)[C@H]7CC[C@H](Nc8cccc9c8n(C)c(=O)n9C8CCC(=O)NC8=O)CC7)CC6)nc5C(F)F)nn4)c3n2)CC1` (stereo partly drawn) [Compound 230] had a Dmax (HEK-293T) of 60 to 70%. Further, the DC50 under setting [2] fell in the range of 500 to 1000 pM. In the case of `CN(C[C@H]1CC[C@H](n2cc(-n3cc(-c4cnn5ccc(N6CCOCC6)nc45)nn3)c(C(F)F)n2)CC1)C1CCN(Cc2cccc3c2n(C)c(=O)n3C2CCC(=O)NC2=O)CC1` (stereo partly drawn) [Example 15], where the note is “HEK-293T”, the Dmax is less than 60%. This compound had a DC50 under setting [1] of 1000 to 5000 pM. With `C[C@H]1CN(c2cccc3c2n(C)c(=O)n3C2CCC(=O)NC2=O)CCN1C[C@H]1CC[C@H](n2cc(-n3cc(-c4cnn5ccc(N6CCC(C)(O)CC6)nc45)nn3)c(C(F)F)n2)CC1` (stereo partly drawn) [Example 284], the Dmax (HEK-293T) was 70 to 80%. Besides, the DC50 under setting [1] was less than 500 pM. The corresponding values for `Cn1c(=O)n(C2CCC(=O)NC2=O)c2cccc(N3CCC4(CCN(C[C@H]5CC[C@H](n6cc(-n7cc(-c8cnn9ccc(N%10CCNCC%10)nc89)nn7)c(C(F)F)n6)CC5)CC4)CC3)c21` (stereo partly drawn) [Example 129, 3-(4-(9-(((1r,4r)-4-(3-(difluoromethyl)-4-(4-(5-(piperazin-1-yl)pyrazolo[1,5-a]pyrimidin-3-yl)-1H-1,2,3-triazol-1-yl)-1H-pyrazol-1-yl)cyclohexyl)methyl)-3,9-diazaspiro[5.5]undecan-3-yl)-3-methyl-2-oxo-2,3-dihydro-1H-benzo[d]imidazol-1-yl)piperidine-2,6-dione dihydrochloride] are more than 80% and less than 500 pM. Compound `Cn1c(=O)n(C2CCC(=O)NC2=O)c2cccc(N3CC4CN(C[C@H]5CC[C@H](n6cc(-n7cc(-c8ccc9cc(C(N)=O)cnn89)nn7)c(C(F)F)n6)CC5)CC4C3)c21` (stereo partly drawn) [Example 81] returned a Dmax (HEK-293T) of more than 80%. The same compound gave a DC50 under setting [1] of less than 500 pM. The corresponding values for `Cn1c(=O)n(C2CCC(=O)NC2=O)c2cccc(N3CCOC4(CCN(C[C@H]5CC[C@H](n6cc(-n7cc(-c8ccc9cc(C(N)=O)cnn89)nn7)c(C(F)F)n6)CC5)CC4)C3)c21` (stereo partly drawn) [Example 88] are 70 to 80% and less than 500 pM. The compound `Cn1c(=O)n(C2CCC(=O)NC2=O)c2cccc(NC(=O)N3CCC4(CCN(C[C@H]5CC[C@H](n6cc(-n7cc(-c8cnn9ccc(N%10CCOCC%10)nc89)nn7)c(C(F)F)n6)CC5)C4)CC3)c21` (stereo partly drawn) [Example 18, 2-(((1r,4r)-4-(3-(difluoromethyl)-4-(4-(5-morpholinopyrazolo [1,5-a]pyrimidin-3-yl)-1H-1,2,3-triazol-1-yl)-1H-pyrazol-1-yl)cyclohexyl)methyl)-N-(1-(2,6-dioxopiperidin-3-yl)-3-methyl-2-oxo-2,3-dihydro-1H-benzo[d]imidazol-4-yl)-2,8-diazaspiro[4.5]decan-8-carboxamide] yielded a Dmax (HEK-293T) of more than 80%. Moreover, the DC50 under setting [2] was more than 5000 pM.
